Each block holds one compound with its values, some of them ahead of it.
Key:
[1] = system: HIV-1/LAI infected MT4 cells; format: cell-based; conditions: in combination with the compound of formula (4); three molar ratios; mean of three experiments
Experimental: In general, combinations of two compounds can act synergistically, in an additive way or antagonistically. […] For the current invention, this was assessed in an experimental setting where the potency of different ratios of the two HIV-protease inhibitors is measured. Results were plotted in an isobologram graph according to the method described by Chou and Talalay (Adv. Enzyme Regul. 22: 27-55, 1984).
The results were analyzed according to the isobologram method described by Chou and Talalay (1984).
The results are presented as the mean of three separate experiments. The combination index (CI) for each combination was determined.

[2] = Safety and tolerability (adverse events, maculopapular rash) in clinical testing
[3] = Influence of ritonavir on the pharmacokinetics of a single dose of the compound of formula (4); conditions: human, in vivo; for AUC: mean ± SD
[4] = Panel E (1200 mg/200 mg RTV o.d.)

SMILES: CC(C)c1nc(CN(C)C(=O)N[C@H](C(=O)N[C@@H](Cc2ccccc2)C[C@H](O)[C@H](Cc2ccccc2)NC(=O)OCc2cncs2)C(C)C)cs1 [ritonavir]
- combination index (CI) [1]: 0.66-0.81

SMILES: CC(C)(C)NC(=O)[C@@H]1C[C@@H]2CCCC[C@@H]2CN1C[C@@H](O)[C@H](Cc1ccccc1)NC(=O)[C@H](CC(N)=O)NC(=O)c1ccc2ccccc2n1 [saquinavir]
- combination index (CI) [1]: 0.94-1.0

SMILES: Cc1c(O)cccc1C(=O)N[C@@H](CSc1ccccc1)[C@H](O)CN1C[C@H]2CCCC[C@H]2C[C@H]1C(=O)NC(C)(C)C [nelfinavir]
- combination index (CI) [1]: 0.61-0.80

- Tmax [3]: 60 min
- Tmax ([3]; 800 mg): 48 min
- AUC ([3]; 800 mg, Session I: single 800 mg dose alone): 10700 ± 3130 ng·h/mL
- AUC ([3]; 800 mg, Session II: single 800 mg dose with RTV): 98700 ± 38500 ng·h/mL
SMILES: CC(C)CN(C[C@@H](O)[C@H](Cc1ccccc1)NC(=O)O[C@H]1CO[C@H]2OCC[C@H]21)S(=O)(=O)c1ccc(N)cc1 [compound of formula (4), carbamic acid [(1S,2R)-3-[[(4-aminophenyl)sulfonyl](2-methylpropyl)amino]-2-hydroxy-1-(phenylmethyl)propyl]-(3R,3aS,6aR)hexahydrofuro[2,3-b]furan-3-yl ester]
- subjects who developed maculopapular rash ([2]; 1200 mg t.i.d. alone): 4 out of 6
- itching of the body and/or redness of the skin [2, 4]: two other volunteers
- maculopapular rash [2, 4]: one volunteer with a clear maculopapular rash
- maculopapular rash ([2]; volunteers in panels A to D (with ritonavir)): No maculopapular rash was observed

SMILES: CC(C)(C)NC(=O)[C@@H]1CN(Cc2cccnc2)CCN1C[C@@H](O)C[C@@H](Cc1ccccc1)C(=O)N[C@H]1c2ccccc2C[C@H]1O [indinavir]
- combination index (CI) [1]: 0.87-0.92

SMILES: CC(C)CN(C[C@@H](O)[C@H](Cc1ccccc1)NC(=O)O[C@H]1CCOC1)S(=O)(=O)c1ccc(N)cc1 [amprenavir]
- combination index (CI) [1]: 0.65-0.77

SMILES: Cc1cccc(C)c1OCC(=O)N[C@@H](Cc1ccccc1)[C@@H](O)C[C@H](Cc1ccccc1)NC(=O)[C@H](C(C)C)N1CCCNC1=O [lopinavir]
- combination index (CI) [1]: 0.85-0.95

Source: patent publication US20050119338A1, “Combination of cytochome p450 dependent protease inhibitors” (priority 2001, published 2005)
